{"source": "ChEMBL document CHEMBL3044856", "about": "“Molecular docking of glycogen synthase kinase3- inhibitor oleanolic acid and its wound-healing activity in rats” (Med Chem Res, 2013)", "key": {"[1]": {"test_system": "Mus musculus", "test": "Wound-healing activity in Swiss albino Mus musculus (mouse) excision wound model assessed as closure of excision wound area at 3 mg/ml, ip measured on day 8 (reference value: 54.64 +/- 1.17%)", "assay_type": "functional"}, "[2]": {"test_system": "Mus musculus", "test": "Acute toxicity in Swiss albino Mus musculus (mouse) assessed as abnormal behavior up to 120 mg/kg, ip", "assay_type": "organism-based", "design": "dose 120 mg/kg, route intraperitoneal", "settings": "in vivo"}, "[3]": {"test_system": "Mus musculus", "test": "Wound-healing activity in Swiss albino Mus musculus (mouse) dead space wound model assessed as increase in tissue breaking strength at 3 mg/ml, ip measured on day 10 (reference value: 366.32 +/- 14.40 g)", "assay_type": "functional"}, "[4]": {"test_system": "Mus musculus", "test": "Acute toxicity in Swiss albino Mus musculus (mouse) assessed as mortality up to 120 mg/kg, ip", "assay_type": "organism-based", "design": "dose 120 mg/kg, route intraperitoneal", "settings": "in vivo"}, "[5]": {"test_system": "Mus musculus", "test": "Wound-healing activity in Swiss albino Mus musculus (mouse) assessed as increase in collagenation in granulation tissue at 3 mg/ml, ip measured on day 10 by hematoxylin and eosin staining-based histological analysis relative to untreated control", "assay_type": "functional, organism-based"}, "[6]": {"test_system": "Mus musculus", "test": "Wound-healing activity in Swiss albino Mus musculus (mouse) excision wound model assessed as closure of excision wound area at 3 mg/ml, ip measured on day 4 (reference value: 25.32 +/- 3.31%)", "assay_type": "functional"}, "[7]": {"test_system": "Mus musculus", "test": "Wound-healing activity in Swiss albino Mus musculus (mouse) dead space wound model assessed as increase in hydroxyproline content measured per 100 g of tissue at 3 mg/ml, ip measured on day 10 (reference value: 1411.15 +/- 6.26 ug)", "assay_type": "functional"}, "[8]": {"test_system": "Mus musculus", "test": "Wound-healing activity in Swiss albino Mus musculus (mouse) excision wound model assessed as closure of excision wound area at 3 mg/ml, ip measured on day 12 (reference value: 66.04 +/- 0.94%)", "assay_type": "functional"}, "[9]": {"test_system": "Mus musculus", "test": "Wound-healing activity in Swiss albino Mus musculus (mouse) excision wound model assessed as closure of excision wound area at 3 mg/ml, ip measured on day 16 (reference value: 81.36 +/- 0.83%)", "assay_type": "functional"}, "[10]": {"test_system": "Mus musculus", "test": "Wound-healing activity in Swiss albino Mus musculus (mouse) dead space wound model assessed as increase in dry weight of granuloma tissue at 3 mg/ml, ip measured on day 10 (reference value: 11.52 +/- 0.9 mg)", "assay_type": "functional"}, "[11]": {"test_system": "Mus musculus", "test": "Wound-healing activity in Swiss albino Mus musculus (mouse) excision wound model assessed as time required for complete epithelialization of excision wound at 3 mg/ml, ip (reference value: 22.75 +/- 0.13 days)", "assay_type": "functional"}, "[12]": {"test_system": "Mus musculus", "test": "Wound-healing activity in Swiss albino Mus musculus (mouse) incision wound model assessed as increase in tensil strength of incision wound at 12 mg/kg/day, ip measured on day 10 (reference value: 356.13 +/- 14.55 g)", "assay_type": "functional", "settings": "route intraperitoneal"}, "[13]": {"test_system": "Mus musculus", "test": "Wound-healing activity in Swiss albino Mus musculus (mouse) assessed as decrease in macrophage accumulation in granulation tissue at 3 mg/ml, ip measured on day 10 by hematoxylin and eosin staining-based histological analysis relative to untreated control", "assay_type": "functional, organism-based"}, "[14]": {"test_system": "Mus musculus", "test": "Wound-healing activity in Swiss albino Mus musculus (mouse) dead space wound model assessed as increase in wet weight of granuloma tissue at 3 mg/ml, ip measured on day 10 (reference value: 79.56 +/- 1.05 mg)", "assay_type": "functional"}, "[15]": {"test_system": "Mus musculus", "test": "Wound-healing activity in ip dosed Swiss albino Mus musculus (mouse) dead space wound model assessed as increase in hydroxyproline content measured per 100 g of tissue measured on day 10 (reference value: 1411.15 +/- 6.26 ug)", "assay_type": "functional"}, "[16]": {"test_system": "Mus musculus", "test": "Wound-healing activity in ip dosed Swiss albino Mus musculus (mouse) excision wound model assessed as time required for complete epithelialization of excision wound (reference value: 22.75 +/- 0.13 days)", "assay_type": "functional"}, "[17]": {"test_system": "Mus musculus", "test": "Wound-healing activity in ip dosed Swiss albino Mus musculus (mouse) assessed as increase in collagenation in granulation tissue measured on day 10 by hematoxylin and eosin staining-based histological analysis relative to untreated control", "assay_type": "functional, organism-based"}, "[18]": {"test_system": "Mus musculus", "test": "Wound-healing activity in ip dosed Swiss albino Mus musculus (mouse) excision wound model assessed as closure of excision wound area measured on day 12 (reference value: 66.04 +/- 0.94%)", "assay_type": "functional"}, "[19]": {"test_system": "Mus musculus", "test": "Wound-healing activity in ip dosed Swiss albino Mus musculus (mouse) excision wound model assessed as closure of excision wound area measured on day 4 (reference value: 25.32 +/- 3.31%)", "assay_type": "functional"}, "[20]": {"test_system": "Mus musculus", "test": "Wound-healing activity in ip dosed Swiss albino Mus musculus (mouse) dead space wound model assessed as increase in tissue breaking strength measured on day 10 (reference value: 366.32 +/- 14.40 g)", "assay_type": "functional"}, "[21]": {"test_system": "Mus musculus", "test": "Wound-healing activity in ip dosed Swiss albino Mus musculus (mouse) assessed as decrease in macrophage accumulation in granulation tissue measured on day 10 by hematoxylin and eosin staining-based histological analysis relative to untreated control", "assay_type": "functional, organism-based"}, "[22]": {"test_system": "Mus musculus", "test": "Wound-healing activity in ip dosed Swiss albino Mus musculus (mouse) dead space wound model assessed as increase in wet weight of granuloma tissue measured on day 10 (reference value: 79.56 +/- 1.05 mg)", "assay_type": "functional"}, "[23]": {"test_system": "Mus musculus", "test": "Wound-healing activity in ip dosed Swiss albino Mus musculus (mouse) incision wound model assessed as increase in tensil strength of incision wound measured on day 10 (reference value: 356.13 +/- 14.55 g)", "assay_type": "functional"}, "[24]": {"test_system": "Mus musculus", "test": "Wound-healing activity in ip dosed Swiss albino Mus musculus (mouse) excision wound model assessed as closure of excision wound area measured on day 16 (reference value: 81.36 +/- 0.83%)", "assay_type": "functional"}, "[25]": {"test_system": "Mus musculus", "test": "Wound-healing activity in ip dosed Swiss albino Mus musculus (mouse) dead space wound model assessed as increase in dry weight of granuloma tissue measured on day 10 (reference value: 11.52 +/- 0.9 mg)", "assay_type": "functional"}, "[26]": {"test_system": "Mus musculus", "test": "Wound-healing activity in ip dosed Swiss albino Mus musculus (mouse) excision wound model assessed as closure of excision wound area measured on day 8 (reference value: 54.64 +/- 1.17%)", "assay_type": "functional"}}, "note": "The source made the active and inactive calls. The rule behind the calls is not given here."}
{"smiles": "CC1(C)CC[C@]2(C(=O)O)CC[C@]3(C)C(=CC[C@@H]4[C@@]5(C)CC[C@H](O)C(C)(C)[C@@H]5CC[C@]43C)[C@@H]2C1", "note": "[OLEANOLIC_ACID]", "values": [{"measurement": "Activity", "setting": "[1]", "result": 79.11, "unit": "%"}, {"measurement": "Activity", "setting": "[2]", "result": "Non-toxic"}, {"measurement": "Activity", "setting": "[3]", "result": 599.08, "unit": "g"}, {"measurement": "Activity", "setting": "[4]", "result": "Non-toxic"}, {"measurement": "Activity", "setting": "[5]", "result": "Active"}, {"measurement": "Activity", "setting": "[6]", "result": 36.13, "unit": "%"}, {"measurement": "Activity", "setting": "[7]", "result": 2124.91, "unit": "µg"}, {"measurement": "Activity", "setting": "[8]", "result": 86.06, "unit": "%"}, {"measurement": "Activity", "setting": "[9]", "result": 96.82, "unit": "%"}, {"measurement": "Activity", "setting": "[10]", "result": 26.25, "unit": "mg"}, {"measurement": "Time", "setting": "[11]", "result": 18.48, "unit": "days"}, {"measurement": "Activity", "setting": "[12]", "result": 580.83, "unit": "g"}, {"measurement": "Activity", "setting": "[13]", "result": "Active"}, {"measurement": "Activity", "setting": "[14]", "result": 127.12, "unit": "mg"}]}
{"smiles": "Nc1ccc(S(=O)(=O)Nc2nccs2)cc1", "note": "[SULFATHIAZOLE]", "values": [{"measurement": "Activity", "setting": "[15]", "result": 2427.33, "unit": "µg"}, {"measurement": "Time", "setting": "[16]", "result": 18.36, "unit": "days"}, {"measurement": "Activity", "setting": "[17]", "result": "Active"}, {"measurement": "Activity", "setting": "[18]", "result": 84.46, "unit": "%"}, {"measurement": "Activity", "setting": "[19]", "result": 39.94, "unit": "%"}, {"measurement": "Activity", "setting": "[20]", "result": 617.39, "unit": "g"}, {"measurement": "Activity", "setting": "[21]", "result": "Active"}, {"measurement": "Activity", "setting": "[22]", "result": 131.4, "unit": "mg"}, {"measurement": "Activity", "setting": "[23]", "result": 582.04, "unit": "g"}, {"measurement": "Activity", "setting": "[24]", "result": 96.94, "unit": "%"}, {"measurement": "Activity", "setting": "[25]", "result": 28.42, "unit": "mg"}, {"measurement": "Activity", "setting": "[26]", "result": 74.54, "unit": "%"}]}
